Experimental data as given in US8178579B2, “Dioxanes and uses thereof” (President and Fellows of Harvard College, priority 2001, dated 2012).
pIC50: −log10 of the molar value.

Legend:
HDAC6 = molecular target: T1, HDAC6 (Homo sapiens, UniProt Q9UBN7); assay: HDAC assay, [3H]acetate-incorporated histones with immunoprecipitated FLAG-tagged HDAC6 (HDAC6F); format: biochemical; set-up: made in house; host or cells: TAg Jurkat cells, transient transfection, anti-FLAG M2 immunoprecipitation; conditions: calculated IC50, data in duplicate, at least two experiments; read-out: IC50 against HDAC6
T1 sequence (Q9UBN7 1-1215): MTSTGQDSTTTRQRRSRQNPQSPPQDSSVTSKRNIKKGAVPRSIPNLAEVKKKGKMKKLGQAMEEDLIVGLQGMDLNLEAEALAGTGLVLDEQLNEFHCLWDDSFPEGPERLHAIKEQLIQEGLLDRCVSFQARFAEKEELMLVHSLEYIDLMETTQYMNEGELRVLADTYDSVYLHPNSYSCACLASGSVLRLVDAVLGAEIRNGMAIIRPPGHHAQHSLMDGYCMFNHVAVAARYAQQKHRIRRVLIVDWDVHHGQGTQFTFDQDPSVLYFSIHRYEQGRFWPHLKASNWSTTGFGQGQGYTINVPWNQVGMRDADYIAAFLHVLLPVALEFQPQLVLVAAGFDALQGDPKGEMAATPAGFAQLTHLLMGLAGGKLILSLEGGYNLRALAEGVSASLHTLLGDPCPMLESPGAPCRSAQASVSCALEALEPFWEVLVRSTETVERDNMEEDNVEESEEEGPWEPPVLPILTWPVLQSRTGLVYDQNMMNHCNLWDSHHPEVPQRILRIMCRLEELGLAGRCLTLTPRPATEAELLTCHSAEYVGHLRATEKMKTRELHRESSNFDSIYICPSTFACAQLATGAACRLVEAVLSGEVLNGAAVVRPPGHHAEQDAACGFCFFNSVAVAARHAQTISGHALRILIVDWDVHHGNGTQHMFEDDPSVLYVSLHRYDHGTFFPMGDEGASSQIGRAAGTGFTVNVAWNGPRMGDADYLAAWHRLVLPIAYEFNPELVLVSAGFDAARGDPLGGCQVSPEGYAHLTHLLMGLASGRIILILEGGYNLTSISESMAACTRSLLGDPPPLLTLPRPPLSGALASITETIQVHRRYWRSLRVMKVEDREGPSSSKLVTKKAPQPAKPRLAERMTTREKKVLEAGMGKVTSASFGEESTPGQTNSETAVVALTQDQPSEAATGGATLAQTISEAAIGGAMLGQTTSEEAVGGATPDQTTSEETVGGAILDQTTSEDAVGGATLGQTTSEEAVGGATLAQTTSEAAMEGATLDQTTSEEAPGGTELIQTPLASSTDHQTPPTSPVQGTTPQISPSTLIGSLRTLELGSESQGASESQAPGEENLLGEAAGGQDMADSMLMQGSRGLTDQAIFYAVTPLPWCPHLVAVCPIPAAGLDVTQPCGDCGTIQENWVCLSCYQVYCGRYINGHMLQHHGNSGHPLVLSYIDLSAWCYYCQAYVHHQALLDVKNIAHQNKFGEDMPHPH
Description: (§1) Cell culture and Transfections. TAg-Jurkat cells were transfected by electroporation with 5 μg of FLAG-epitope-tagged pBJ5 constructs (as described in ref. 5c) for expression of recombinant proteins. Cells were harvested 48 h posttransfection.
HDAC assays. […] Compounds were added in DMSO such that final assay concentrations were 1% DMSO. IC50s were calculated using Prism 3.0 software. Curve fitting was done without constraints using the program's Sigmoidal-Dose Response parameters. All data points were acquired in duplicate and IC50s are calculated from the composite results of at least two separate experiments.
Tubulin and MAPs were isolated from bovine brain as described [See http://mitchison.med.harvard.edu/protocols/tubprep.html]. Whole brain and fractions from phosphocellulose chromatography were blotted for HDAC6 and acetylated α-tubulin. Cultured hippocampal neurons from dissociated 1-day old rat brains were transfected with an enhanced green fluorescent protein (EGFP)-actin construct at 4-5 days using the calcium phosphate method [E. N. Star, D. J. Kwiatkowski and V. N. Murthy, Nat. Neurosci. […] K. Miranti and M. E. Greenberg, J. Neurosci. […] Transfected cultures were allowed to grow for at least 48 h before the addition of experimental compounds.
[^3H]Acetate-incorporated histones were isolated from butyrate-treated HeLa cells as described [J. Taunton, C. […] Immunoprecipitates were incubated with acetylated histones and HDAC activity determined by scintillation counting as described [J. Taunton, C. […] TDAC assays were performed with immunoprecipitates using MAP-stabilized microtubules polymerized from MAP-rich tubulin fraction as described [C. […] Reactions were incubated (2 h) at 37° C., then incubated on ice (15 min).

HDAC1 = molecular target: T2, HDAC1 (Homo sapiens, UniProt Q13547); assay: HDAC assay, [3H]acetate-incorporated histones with immunoprecipitated FLAG-tagged HDAC1; format: biochemical; conditions: calculated IC50, data in duplicate, at least two experiments; read-out: IC50 against HDAC1
T2 construct: made in house; host or cells: TAg-Jurkat cells, transient transfection, then immunoprecipitation
Description: as §1
HDAC assays. [^3H]Acetate-incorporated histones were isolated from butyrate-treated HeLa cells by hydroxyapatite chromatography (as described in Tong, et al. Nature 1997, 395, 917-921.) Immunoprecipitates were incubated with 1.4 μg (10,000 dpm) histones for 3 h at 37° C. HDAC activity was determined by scintillation counting of the ethyl acetate-soluble [^3H]acetic acid (as described in Taunton, et al., Science 1996, 272, 408-411). Compounds were added in DMSO such that final assay concentrations were 1% DMSO. IC50s were calculated using Prism 3.0 software. Curve fitting was done without constraints using the program's Sigmoidal-Dose Response parameters. All data points were acquired in duplicate and IC50s are calculated from the composite results of at least two separate experiments.

[1] = test system: cyclin B degradation pathway; assay: Xenopus laevis oocyte extract assay of cyclin B degradation; conditions: 4 μL assay volume
Source text: (§2) Biologically active 1,3-dioxanes have been identified in phenotypic assays in cell culture, zebrafish, and Xenopus laevis oocyte extract (FIG. 22).

cyclin B degradation = cyclin B degradation assay in HeLa cells; format: cell-based; conditions: 30 μL assay volume
Source text: as §2

α-tubulin deacetylation = conditions: cited from earlier work
[2] = test system: α-tubulin acetylation in the presence of ITSA1; conditions: cited from earlier work
human FKBP12 = human FKBP12 (Homo sapiens, UniProt P62942); assay: small molecule microarray protein-binding assay; conditions: labeled protein
Description: In addition to phenotypic assays, over fifty protein-binding assays have been performed with the 1,3-dioxane library using small molecule microarrays (MacBeath et al. J. Am. Chem. Soc. 1999, 121, 7967-7968; Peterson et al. Proc. Natl. Acad. Sci. U.S.A. 2000, 97, 12965-12969). The microarrays were constructed by covalent attachment of […] of each stock solution to a glass slide using a contact printing robot. Labeled proteins were used to probe the microarray for small molecule partners.

Sequence of human FKBP12 (P62942 whole entry): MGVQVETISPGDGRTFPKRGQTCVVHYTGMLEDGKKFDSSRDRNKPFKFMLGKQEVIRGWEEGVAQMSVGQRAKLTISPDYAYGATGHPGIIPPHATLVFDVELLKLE
T2 sequence (Q13547 whole entry): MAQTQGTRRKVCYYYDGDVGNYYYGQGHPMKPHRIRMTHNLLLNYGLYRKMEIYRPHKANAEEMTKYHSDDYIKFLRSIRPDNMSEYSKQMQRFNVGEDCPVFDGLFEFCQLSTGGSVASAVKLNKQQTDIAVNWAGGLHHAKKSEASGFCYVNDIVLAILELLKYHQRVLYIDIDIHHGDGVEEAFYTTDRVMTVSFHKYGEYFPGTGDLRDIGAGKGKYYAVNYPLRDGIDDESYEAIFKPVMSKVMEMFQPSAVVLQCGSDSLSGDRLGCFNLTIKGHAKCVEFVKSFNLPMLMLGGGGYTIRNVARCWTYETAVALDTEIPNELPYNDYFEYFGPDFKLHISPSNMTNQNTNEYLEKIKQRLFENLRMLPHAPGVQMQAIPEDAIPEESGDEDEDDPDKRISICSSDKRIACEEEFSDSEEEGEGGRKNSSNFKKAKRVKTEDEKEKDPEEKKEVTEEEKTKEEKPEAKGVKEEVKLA

C[C@H]1[C@@H](CN2CCC3(CC2)OCCO3)OC(c2cccc(NS(=O)(=O)c3ccccc3)c2)O[C@H]1c1ccc(CO)cc1 (mixture of isomers) [compound 10, (±)-N-[3-[(4S,5R,6R)-4-(1,4-dioxa-8-azaspiro[4.5]dec-8-ylmethyl)-6-[4-(hydroxymethyl)phenyl]-5-methyl-1,3-dioxan-2-yl]phenyl-benzenesulfonamide]
pIC50 (HDAC6): ~6.00 | pIC50 (HDAC1): ~6.00 | activity in Xenopus laevis oocyte extract cyclin B degradation assay [1]: Neither set of compounds was active in both assay systems | activity in HeLa cell cyclin B degradation assay (cyclin B degradation): inhibitory activity

CC(=O)O[C@H]1C(=O)[C@@]2(C)[C@H]([C@H](OC(=O)c3ccccc3)[C@]3(O)C[C@H](OC(=O)[C@H](O)[C@@H](NC(=O)c4ccccc4)c4ccccc4)C(C)=C1C3(C)C)[C@]1(OC(C)=O)CO[C@@H]1C[C@@H]2O [taxol, Paclitaxel]
effect on α-tubulin acetylation, stated as known (α-tubulin deacetylation): increases α-tubulin acetylation due to direct stabilization of microtubules | suppression by ITSA1, stated as known [2]: is not suppressed by ITSA1

(αS)-2-acetyloxy)-N-[[4-[(4R,5S,6S)-4-[4-(hydroxymethyl)phenyl]-6-[[4,5-d]phenyl-2-oxazolyl)thio]methyl]61,3-dioxan-2-yl]phenyl]methyl-propionamide [compound 14]
binding to human FKBP12 on small molecule microarray (human FKBP12): bind to human FKBP12
